Laboratory results as given in patent US20250042894A1, “PROTEIN TYROSINE PHOSPHATASE INHIBITORS AND METHODS OF USE THEREOF” (Calico Life Sciences LLC, priority 2021, published 2025).
pEC50, pIC50: −log10 of the molar value. Read-outs that look alike come from different tables or passages of the source.

Tests used:
[1] = target: T1, His tagged PTPN2 (TC45) protein (Homo sapiens, UniProt P17706); experiment: Mobility Shift Assay (MSA) for PTPN2 inhibitors; type: biochemical; settings: for pIC50: enzyme 0.5 nM, substrate 2 μM, 10 minutes preincubation at room temperature; for Thiochromane x-fold>potency biochemical: Table 3, PTPN2 MSA IC50 of chromane comparator over thiochromane
T1 construct: His; made in house
T1 sequence (P17706 1-387 isoform P17706-2): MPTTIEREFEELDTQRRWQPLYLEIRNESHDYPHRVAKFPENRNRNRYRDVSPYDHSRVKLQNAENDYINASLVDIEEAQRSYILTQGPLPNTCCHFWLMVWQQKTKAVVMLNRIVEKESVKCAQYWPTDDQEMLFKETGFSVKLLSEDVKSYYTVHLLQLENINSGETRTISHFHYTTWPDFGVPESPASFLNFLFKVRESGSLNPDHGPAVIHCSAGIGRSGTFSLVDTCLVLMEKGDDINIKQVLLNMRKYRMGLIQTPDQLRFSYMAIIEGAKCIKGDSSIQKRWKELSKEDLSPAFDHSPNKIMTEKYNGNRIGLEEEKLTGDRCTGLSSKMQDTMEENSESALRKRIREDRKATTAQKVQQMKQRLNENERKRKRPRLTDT
Protocol: Example 43: Mobility Shift Assay (MSA) Used to Determine Potency of PTPN2 Inhibitors
Compound activity was determined using in house His tagged PTPN2 (TC45) protein (SEQ ID NO: 1) in an in vitro enzymatic reaction. The enzymatic assay used to determine activity was a mobility shift assay using a LabChip EZ Reader by Caliper Life Sciences. The enzymatic reaction was carried out in assay buffer (50 mM HEPES pH 7.5, 1 mM EGTA, 10 mM EDTA, 0.01% Tween® 20, and 2 mM DTT). The compounds were dispensed on a white 384 well ProxiPlate™ (PerkinElmer Catalog #6008289) plate using the Labcyte Echo at varying concentrations (12 point, 1:3 dilution). The enzyme (at 0.5 nM) was incubated with compound for 10 minutes at room temperature. Thereafter, the substrate (phosphorylated insulin receptor probe sequence: ((OG488)-(NH—CH2—CH2—O—CH2—CH2—O—CH2—CO)-T-R-D-I—(PY)-E-T-D-Y—Y—R—K—K—NH2) (SEQ ID NO: 2) was added at 2 μM to the plates and incubated for another 10 minutes at room temperature. Finally, a quench solution (water and 4-bromo-3-(2-oxo-2-propoxyethoxy)-5-(3-{[1-(phenylmethanesulfonyl)piperidin-4-yl]amino}phenyl)thiophene-2-carboxylic acid) was added to the plates, which were then run on the EZ Reader (excitation 488 nm, emission 530 nm) to measure % conversion (the amount of phosphorylated substrate which was de-phosphorylated by PTPN2). […] The % inhibition was then used to calculate the IC50 values.

[2] = target: T2, His tagged full-length PTPN1 protein (Homo sapiens, UniProt P18031); experiment: Mobility Shift Assay (MSA) for PTPN1 inhibitors; type: biochemical; settings: enzyme 0.5 nM, substrate 2 μM, 10 minutes preincubation at room temperature
T2 construct: His; made in house
T2 sequence (P18031 1-435): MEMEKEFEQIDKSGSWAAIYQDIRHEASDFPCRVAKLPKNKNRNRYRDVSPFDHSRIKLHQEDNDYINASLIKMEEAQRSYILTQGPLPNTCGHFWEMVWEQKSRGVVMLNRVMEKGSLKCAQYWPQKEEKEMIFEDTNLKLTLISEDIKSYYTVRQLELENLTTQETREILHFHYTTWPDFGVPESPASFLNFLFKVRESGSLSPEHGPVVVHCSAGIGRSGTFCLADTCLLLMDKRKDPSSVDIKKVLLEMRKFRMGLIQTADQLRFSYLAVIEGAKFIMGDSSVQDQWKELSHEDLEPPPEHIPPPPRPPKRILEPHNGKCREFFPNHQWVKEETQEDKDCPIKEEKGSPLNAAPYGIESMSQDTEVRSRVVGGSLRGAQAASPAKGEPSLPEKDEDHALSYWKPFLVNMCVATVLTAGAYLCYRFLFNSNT
Protocol: Example 44: Mobility Shift Assay (MSA) Used to Determine Potency of PTPN1 Inhibitors
Compound activity was determined using in house His tagged full-length PTPN1 protein (SEQ ID NO: 3) in an in vitro enzymatic reaction. The enzymatic assay used to determine activity is a mobility shift assay using a LabChip EZ Reader by Caliper Life Sciences. The enzymatic reaction was carried out in assay buffer (50 mM HEPES pH 7.5, 1 mM EGTA, 10 mM EDTA, 0.010% Tween® 20, and 2 mM DTT). The compounds were dispensed on a white 384 well ProxiPlate™ (PerkinElmer Cat #6008289) plate using a Labcyte Echo® liquid handler at varying concentrations (12 point, 1:3 dilution). The enzyme (at 0.5 nM) was incubated with compound for 10 minutes at room temperature. Thereafter, the substrate (phosphorylated insulin receptor probe sequence: ((OG488)-(NH—CH2—CH2—O—CH2—CH2—O—CH2—CO)-T-R-D-I—(PY)-E-T-D-Y—Y—R—K—K—NH2) (SEQ ID NO: 2) was added at 2 μM to the plates and incubated for another 10 minutes at room temperature. Finally, a quench solution (water and 4-bromo-3-(2-oxo-2-propoxyethoxy)-5-(3-{[1-(phenylmethanesulfonyl)piperidin-4-yl]amino}phenyl)thiophene-2-carboxylic acid) was added to the plates, which were then run on the EZ Reader (excitation 488 nm, emission 530 nm) to measure % conversion (the amount of phosphorylated substrate which was de-phosphorylated by PTPN1). […] The % inhibition was then used to calculate the IC50 values.

[3] = tested on: IFNγ-induced STAT1 phosphorylation (pSTAT1) in B16F10 cells; experiment: B16F10 Phospho-STAT1 HTRF proximal pharmacodynamic (PD) assay; type: cell-based, murine; settings: for pEC50: B16-F10; for Thiochromane x-fold>potency cellular: pSTAT1 EC50 of chromane comparator over thiochromane
Protocol: Example 45: B16F10 (Murine Melanoma Cells) Phospho-STAT1 HTRF Proximal Pharmacodynamic (PD) Assay
B16F10 cells were grown and maintained in high glucose DMEM (Gibco, Catalog #11965-092, Dun Laoghaire Co Dublin) supplemented with 10% fetal bovine serum (Gibco, Catalog #10082-139, Dun Laoghaire Co Dublin). The cells were pelleted and resuspended in high glucose DMEM without phenol red (Gibco, Catalog #11054-020, Dun Laoghaire Co Dublin), supplemented with 10% fetal bovine serum and plated in a 384 well Corning plate (product #3765, Corning, NY) at 11,000 cells per well in a volume of 20 μL. The cells were dosed with the compounds of interest using an Echo Liquid Handler (Beckman Coulter, Brea, CA) at 50 μM top dose with 3-fold dilutions down to 0.002679 μM for a 10-point dose response. The plate was incubated for 3 hours at 37° C. and subsequently treated with recombinant mouse IFNγ (R&D Systems, Catalog #485-MI, Minneapolis, MN; 100 nM final concentration) for 10 minutes at 37° C. to induce STAT1 phosphorylation followed by 3.3 μM staurosporine treatment for 1 hour at 37° C. to terminate phosphorylation. Media was then aspirated and 20 μL of 1× lysis buffer/blocking reagent (Cisbio Phospho-STAT1 kit, part #63ADK026PEH, Bedford, MA) was added. The plate was placed on a plate shaker for 30 minutes at room temperature, sealed, and stored at −80° C. until needed. To thaw, the plate was placed on shaker at room temperature until completely thawed while the antibody master mix was made (1:40 Phospho-STAT1 Eu Cryptate antibody, 1:40 Phospho-STAT1 d2 antibody, with the detection buffer; Cisbio Phospho-STAT1 kit, part #63ADK026PEH, Bedford, MA). The antibody master mix was then dispensed at 4 μL per well into a 384 ProxiPlate Plus (PerkinElmer, part #6008289, Waltham, MA) and 16 μL of lysate was added from the Corning plate to the Proxiplate using a VIAFLO 384 (INTEGRA). The plate was incubated for 3 hours at room temperature and read on an EnVision® (Perkin Elmer) plate reader with laser excitation at 335 nm and emission at 665 nm. Dotmatics Studies (Bishop's Stortford, UK) was utilized to generate all dose-response curves and calculate EC50s and are shown in Table 2.

[4] = Table 2, 3 hours compound, then mouse IFNγ 100 nM 10 minutes, top dose 50 μM, read-out: B16F10 IFNγ Induced pSTAT1 EC50
[5] = Mus musculus, Table 3, B16F10 cells, IFNγ-induced, thiochromanes (X = S) and chromane comparators (X = O), read-out: pSTAT1 EC50

| pIC50 [2] | pEC50 [3, 4] | pEC50 [3, 5] | Compound | pIC50 [1] | Thiochromane x-fold>potency biochemical [1] | Thiochromane x-fold>potency cellular ([3]; Table 3) |
| --- | --- | --- | --- | --- | --- | --- |
| 7.00 to 8.00 | 4.92 |  | CC(C)(CO)CCN[C@@H]1CSc2cc(O)c(N3CC(=O)NS3(=O)=O)c(F)c2C1 [Compound 106, 5-{(3S)-5-fluoro-7-hydroxy-3-[(4-hydroxy-3,3-dimethylbutyl)amino]-3,4-dihydro-2H-1-benzothiopyran-6-yl}-1λ^6,2,5-thiadiazolidine-1,1,3-trione] | > 8.00 |  |  |
| 7.00 to 8.00 | 5.22 | 5.22 | O=C1CN(c2c(O)cc3c(c2F)C[C@H](NCCC2CCOCC2)CS3)S(=O)(=O)N1 [Compound 109, 5-[(3S)-5-fluoro-7-hydroxy-3-{[2-(oxan-4-yl)ethyl]amino}-3,4-dihydro-2H-1-benzothiopyran-6-yl]-1λ^6,2,5-thiadiazolidine-1,1,3-trione] | > 8.00 | 2.0 | 5.3 |
| 7.00 to 8.00 | 5.92 |  | CCCCN[C@@H]1CSc2cc(O)c(N3CC(=O)NS3(=O)=O)c(F)c2C1 [Compound 112, 5-[(3S)-3-(butylamino)-5-fluoro-7-hydroxy-3,4-dihydro-2H-1-benzothiopyran-6-yl]-1λ^6,2,5-thiadiazolidine-1,1,3-trione] | > 8.00 |  |  |
| > 8.00 | 5.74 |  | CC(C)C(C)CN[C@@H]1CSc2cc(O)c(N3CC(=O)NS3(=O)=O)c(F)c2C1 (stereo partly drawn) [Compound 115, 5-{(3S)-3-[(2,3-dimethylbutyl)amino]-5-fluoro-7-hydroxy-3,4-dihydro-2H-1-benzothiopyran-6-yl}-1λ^6,2,5-thiadiazolidine-1,1,3-trione] | > 8.00 |  |  |

Second part, the molecule before the results:

| Compound | pIC50 [2] | pEC50 [3, 4] | pEC50 [3, 5] | pIC50 [1] | Thiochromane x-fold>potency biochemical [1] | Thiochromane x-fold>potency cellular ([3]; Table 3) |
| --- | --- | --- | --- | --- | --- | --- |
| O=C1CN(c2c(O)cc3c(c2F)C[C@H](NCCC2(CO)CCCC2)CS3)S(=O)(=O)N1 [Compound 105, 5-[(3S)-5-fluoro-7-hydroxy-3-({2-[1-(hydroxymethyl)cyclopentyl]ethyl}amino)-3,4-dihydro-2H-1-benzothiopyran-6-yl]-1λ^6,2,5-thiadiazolidine-1,1,3-trione] | 7.00 to 8.00 | 5.32 |  | > 8.00 |  |  |
| CCCN[C@@H]1CSc2cc(O)c(N3CC(=O)NS3(=O)=O)c(F)c2C1 [Compound 107, 5-[(3S)-5-fluoro-7-hydroxy-3-(propylamino)-3,4-dihydro-2H-1-benzothiopyran-6-yl]-1λ^6,2,5-thiadiazolidine-1,1,3-trione] | 7.00 to 8.00 | 5.40 |  | 7.00 to 8.00 |  |  |
| CCC(C)CCN[C@@H]1CSc2cc(O)c(N3CC(=O)NS3(=O)=O)c(F)c2C1 (stereo partly drawn) [Compound 108, 5-{(3S)-5-fluoro-7-hydroxy-3-[(3-methylpentyl)amino]-3,4-dihydro-2H-1-benzothiopyran-6-yl}-1λ^6,2,5-thiadiazolidine-1,1,3-trione] | > 8.00 | 5.75 |  | > 8.00 |  |  |
| O=C1CN(c2c(O)cc3c(c2F)C[C@H](NCC2CCOCC2)CS3)S(=O)(=O)N1 [Compound 110, 5-[(3S)-5-fluoro-7-hydroxy-3-{[(oxan-4-yl)methyl]amino}-3,4-dihydro-2H-1-benzothiopyran-6-yl]-1λ^6,2,5-thiadiazolidine-1,1,3-trione] | 7.00 to 8.00 | 5.16 |  | 7.00 to 8.00 |  |  |
| O=C1CN(c2c(O)cc3c(c2F)C[C@H](NCC2CC2)CS3)S(=O)(=O)N1 [Compound 111, 5-{(3S)-3-[(cyclopropylmethyl)amino]-5-fluoro-7-hydroxy-3,4-dihydro-2H-1-benzothiopyran-6-yl}-1λ^6,2,5-thiadiazolidine-1,1,3-trione] | 7.00 to 8.00 | 5.10 |  | 7.00 to 8.00 |  |  |
| CC(C)CN[C@@H]1CSc2cc(O)c(N3CC(=O)NS3(=O)=O)c(F)c2C1 [Compound 113, 5-{(3S)-5-fluoro-7-hydroxy-3-[(2-methylpropyl)amino]-3,4-dihydro-2H-1-benzothiopyran-6-yl}-1λ^6,2,5-thiadiazolidine-1,1,3-trione] | 7.00 to 8.00 | 5.69 |  | 7.00 to 8.00 |  |  |
| O=C1CN(c2c(O)cc3c(c2F)C[C@H](NCCC2CCOC2)CS3)S(=O)(=O)N1 (stereo partly drawn) [Compound 114, 5-[(3S)-5-fluoro-7-hydroxy-3-{[2-(oxolan-3-yl)ethyl]amino}-3,4-dihydro-2H-1-benzothiopyran-6-yl]-1λ^6,2,5-thiadiazolidine-1,1,3-trione] | 7.00 to 8.00 | 5.75 | 5.75 | > 8.00 | 6.0 | 12.7 |
